Measurements taken from patent US20090298903A1, “USE OF TETRAMIC ACID DERIVATIVES FOR INSECT CONTROL” (priority 2006, published 2009).

Experiments:
Assay type in all cases: in vivo
Caliothrips phaseoli = test: Example 3: courgettes against Caliothrips phaseoli; conditions: 8 d after treatment, nymphs on 5 leaves, Endosulfan (350 EC) 525, (I-4) (240 SC + 0.1% rapeseed oil methyl ester) 72 g a.s./ha
Experimental: Plots approx. 22 m^2 in size which are planted with courgettes cv. “Italiana negra” are treated, in three replications, against Caliothrips phaseoli. The application is effected with a motor-driven knapsack sprayer. Here, the active substance Example (I-4) (240 SC), in a tank mix together with 0.1% a.s. rapeseed oil methyl ester (500 EW) and the commercial standard endosulfan (350 EC), is tested at the specified application rates. The water application rate is approx. 510 l/ha.
The test is evaluated 8 days after the treatment by scoring the destruction of the animals (nymphs) on 5 leaves.

[1] = tested on: Frankliniella occidentalis; test: Example 5: aubergines against Frankliniella occidentalis; conditions: mixed populations on leaves
Experimental: Plots 6 m^2 in size which are planted with aubergines cv. “Soraya” are treated, in three replications, against Frankliniella occidentalis. The application is effected with a motor-operated knapsack sprayer. Here, the active substances Example (I-4) (240 SC) and Example (I-9) (240 SC), in a tank mix together with 0.1% a.s. rapeseed oil methyl ester (500 EW) and the commercial standard Spinosad (480 SC), are tested at the specified application rates. The water application rate is 1500 l/ha.
The test is evaluated 25, 32 and 39 days after the treatment by scoring the destruction rate of the mixed populations on the leaves.

Thrips tabaci = test: Example 6: onions against Thrips tabaci; conditions: population on leaves
Experimental: Plots 15 m^2 in size which are planted with onions are treated, in two replications, against Thrips tabaci. The application is effected with a knapsack sprayer which is operated with pressurized air. Here, the active substances Example (I-4), in a tank mix together with 0.2% a.s. rapeseed oil methyl ester (500 EW) and the commercial standard dimethoate and (380 EC), are tested at the specified application rates in a tank mix with 0.9% a.s. E-actipron (900 EC). The water application rate is 300 l/ha.
The test was evaluated 43 and 62 days after the treatment by scoring the destruction rate of the population on the leaves.

Empoasca onukui = test: Example 15: tea plants against Empoasca onukui; conditions: larvae on shoots
Experimental: Plots approx. 4 m^2 in size which are planted with tea plants cv. “Yabukita” are treated, in three replications, against Empoasca onukui. The application is carried out with a knapsack sprayer which is operated with pressurized air. Here, the active substance Example (I-4) (150 OD) is tested against the commercial standard Admire (10 WP) at the specified application rates. The water application rate is 10 000 l/ha.
The test is evaluated 15 and 29 days after the treatment by scoring the destruction rate of the larvae in percent on the shoots.

Pegomya spp. = test: Example 17: winter wheat against Pegomya spp.; conditions: 3 days after the last of two treatments (interval 7 days), larvae, Thiacloprid (240 OD) 72, (I-4) (240 SC + 0.2% rapeseed oil methyl ester) 96 g a.s./ha
Experimental: Plots approx. 25 m^2 in size which are planted with winter wheat cv. “Capfern” are treated, in four replications, against Pegomya spp. The application is carried out with a knapsack sprayer which is operated with pressurized air. Here, the active substance Example (I-4) (240 SC), in a tank mix with 0.2% a.s. rapeseed oil methyl ester (500 EW) and the commercial standard Thiacloprid (240 OD), is tested at the specified application rates. Two applications are carried out at an interval of 7 days. The water application rate is 350 l/ha.
The test is evaluated 3 days after the last treatment by scoring the destruction rate of the larvae on the plants.

Dasineura mali = test: Example 19 a): apple trees against Dasineura mali; conditions: 59 d after treatment; larvae, apple twigs; Pirimicarb (50 WG) 125, (I-4) (100 OD) 72 g a.s./ha/m crown level
Experimental: Apple trees cv. “Elan” which are approximately 16 years old are treated, in 3 replications, against the Dasineura mali. Here, the active substance Example (I-4) (100 OD) is tested at the specified application rate against the commercial standard and Pirimicarb (50 WG) at the specified application rate. The application is carried out with a spray diffuser. Here, the treatment is effected with a water application rate of 1000 l/ha/m crown level.
The test is evaluated 59 days after the treatment by scoring the destruction of the larvae on the basis of the adults present on the twigs with the aid of the Abbott method.

Rhagoletis cerasi = test: Example 21: cherry trees against Rhagoletis cerasi; conditions: 23 d after treatment 2, larvae on fruits, Dimethoate (400 EC) 200, (I-4) (150 OD) 75 g a.s./ha/m crown level
Experimental: Cherry trees cv. “Van” which are approximately 26 years old are treated, in three replications, against Rhagoletis cerasi. The application is carried out with an atomizer. Here, the active substance Example (I-4) (150 OD) and the commercial standard dimethoate (400 EC) are applied at the specified application rates. Two applications are carried out at an interval of 6 days with a water application rate of 500 l/ha/m crown level.
The test is evaluated 23 days after treatment 2 by scoring the destruction rates of the animals (larvae) on the fruits with the aid of the Abbott formula.

[2] = tested on: oriental fruit moth (Laspeyresia molesta); test: Example 28: peach trees against oriental fruit moth; conditions: 41 d after treatment, Pyrifroxyfen (35 WP) 123, Acetamiprid (30 SG) 168, (I-4) (150 OD) 153 g a.s./ha
Experimental: Approx. 10-year-old peach trees are treated, in four replications, against the oriental fruit moth (Laspeyresia molesta). The application is carried out with a knapsack sprayer which is operated with pressurized air. Here, the active substance (I-4) (150 OD) is tested against the commercial standards Pyriproxyfen (35 WP) and Acetamiprid (30 SG) at the specified application rates. The water application rate is 935 l/ha.
The test is evaluated 41 days after the treatment by scoring the destruction rate of the animals on the trees.

CCOC(=O)OC1=C(c2cc(C)ccc2C)C(=O)N[C@]12CC[C@@H](OC)CC2 [Example (I-4)]
Efficacy (% Abbott) 8 d (Caliothrips phaseoli): 71.3 % Abbott | Efficacy (% Abbott) 25 d ([1]; 25 d after treatment, Spinosad (480 SC) 0.012, (I-9) 0.0054, (I-4) 0.012 % a.s., 240 SC + 0.1% rapeseed oil methyl ester): 92.1 % Abbott | Efficacy (% Abbott) 32 d ([1]; 32 d after treatment, Spinosad 0.012, (I-9) 0.0054, (I-4) 0.012 % a.s.): 88.3 % Abbott | Efficacy (% Abbott) 39 d ([1]; 39 d after treatment, Spinosad 0.012, (I-9) 0.0054, (I-4) 0.012 % a.s.): 89.7 % Abbott | Efficacy (% Abbott) 43 d (Thrips tabaci; 43 d after treatment, Dimethoate (380 EC + 0.9% E-actipron) 380, (I-4) (+ 0.2% rapeseed oil methyl ester) 96 g a.s./ha): 83.0 % Abbott | Efficacy (% Abbott) 62 d (Thrips tabaci; 62 d after treatment, Dimethoate 380, (I-4) 96 g a.s./ha): 84.5 % Abbott | Efficacy (% Abbott) 15 d (Empoasca onukui; 15 d after treatment, Admire (10 WP) 0.005 % a.s., (I-4) (150 OD) 0.01 % a.s.): 73 % Abbott | Efficacy (% Abbott) 29 d (Empoasca onukui; 29 d after treatment, Admire 0.005 % a.s., (I-4) 0.01 % a.s.): 78.8 % Abbott | Efficacy (% Abbott) 10 d (Pegomya spp.): 100 % Abbott | Efficacy (%) Abbott 59 d (Dasineura mali): 95.1% | Efficacy (% Abbott) 23 d (Rhagoletis cerasi): 100 % Abbott | Efficacy (% Abbott) 41 d [2]: 48.1 % Abbott
